Source: ChEMBL document CHEMBL1201862, “PubChem BioAssay data set” (2004)
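Dose response: 5 concentrations. Exposure: 48 h. Format: 96-well plates. Endpoint: linear interpolation; highest concentration if not reached. GI50 is the concentration that inhibits growth by half.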 The source made the active and inactive calls. Rule as the data show it: active = GI50 up to about 1.1 µM and inactive = higher.

Key:
Experiment in all cases: NCI-60 cell line screen, 48 h
786-0 = tested on: 786-0
A549 = tested on: A549
ACHN = tested on: ACHN
BT-549 = tested on: BT-549
COLO 205 = tested on: COLO 205
HCC 2998 = tested on: HCC 2998
HOP-62 = tested on: HOP-62
K562 = tested on: K562
KM12 = tested on: KM12
MDA-MB-231 = tested on: MDA-MB-231
MOLT-4 = tested on: MOLT-4
Malme-3M = tested on: Malme-3M
NCI-H23 = tested on: NCI-H23
OVCAR-3 = tested on: OVCAR-3
OVCAR-4 = tested on: OVCAR-4
RXF 393 = tested on: RXF 393
SK-OV-3 = tested on: SK-OV-3
SNB-19 = tested on: SNB-19
SR = tested on: SR
NCI-H460 = tested on: NCI-H460

Measured: GI50

CCCCc1ccc(Nc2nc(O)c3ncn(COCCO)c3n2)cc1
inactive: 786-0 44.1 µM | A549 > 100 µM | ACHN > 100 µM | BT-549 > 100 µM | COLO 205 > 100 µM | HCC 2998 > 100 µM | HOP-62 > 100 µM | K562 29.8 µM | KM12 > 100 µM | MDA-MB-231 > 100 µM | MOLT-4 56 µM | Malme-3M > 100 µM | NCI-H23 93.8 µM | OVCAR-3 > 100 µM | OVCAR-4 > 100 µM | RXF 393 > 100 µM | SK-OV-3 > 100 µM | SNB-19 75.7 µM | SR 88.3 µM

COc1nc(OC)nc(-c2cccc(F)c2)n1
inactive: 786-0 19 µM | A549 17.1 µM | ACHN 16.4 µM | BT-549 14 µM | COLO 205 15.4 µM | HCC 2998 13.4 µM | HOP-62 20.4 µM | K562 18.1 µM | KM12 15.7 µM | MDA-MB-231 14.5 µM | MOLT-4 4.99 µM | Malme-3M 15.2 µM | NCI-H23 12 µM | NCI-H460 14.9 µM | OVCAR-3 13.8 µM | OVCAR-4 15.7 µM | RXF 393 15.9 µM | SK-OV-3 15.9 µM | SNB-19 16.9 µM | SR 2.2 µM

CCCCCCCCCCCCCC(=O)N(CCCCCCCCC)CC(O)C(O)C(OC1OC(CO)C(O)C(O)C1O)C(O)CO (stereo not given)
inactive: 786-0 17.1 µM | A549 22.3 µM | ACHN 15.8 µM | BT-549 22.9 µM | COLO 205 20.5 µM | HCC 2998 18.5 µM | HOP-62 24.6 µM | K562 19.9 µM | KM12 17.7 µM | MDA-MB-231 20.7 µM | MOLT-4 24.4 µM | Malme-3M 18.3 µM | NCI-H23 19.7 µM | NCI-H460 20.1 µM | OVCAR-3 26.6 µM | OVCAR-4 24 µM | RXF 393 24.3 µM | SK-OV-3 14.7 µM | SNB-19 24.5 µM | SR 25.6 µM

Oc1ccc(Cl)cc1C1=NC(NCN2CCN(CNC3=NC(c4ccccc4)CC(c4cc(Cl)ccc4O)=N3)CC2)=NC(c2ccccc2)C1 (stereo not given)
inactive: 786-0 20.9 µM | A549 36.1 µM | ACHN 24.8 µM | BT-549 52.2 µM | COLO 205 47.4 µM | HCC 2998 52.6 µM | HOP-62 42.2 µM | K562 36.2 µM | KM12 37.1 µM | MDA-MB-231 > 100 µM | Malme-3M 93.5 µM | NCI-H23 46.6 µM | NCI-H460 35.2 µM | OVCAR-3 28.8 µM | OVCAR-4 28.9 µM | RXF 393 22 µM | SK-OV-3 66.7 µM | SNB-19 41.6 µM | SR 28 µM

COc1ccc(/N=C(/SS/C(=N/c2ccc(OC)cc2)c2ccc([N+](=O)[O-])o2)c2ccc([N+](=O)[O-])o2)cc1
active: 786-0 0.719 µM | NCI-H460 0.982 µM | OVCAR-3 0.624 µM | RXF 393 0.695 µM | SR 0.547 µM
inactive: A549 2.79 µM | ACHN 1.41 µM | BT-549 1.54 µM | COLO 205 1.92 µM | HCC 2998 1.32 µM | HOP-62 1.94 µM | K562 1.19 µM | KM12 1.14 µM | MDA-MB-231 2.77 µM | MOLT-4 4.08 µM | Malme-3M 2.02 µM | NCI-H23 1.45 µM | OVCAR-4 1.42 µM | SK-OV-3 2.79 µM | SNB-19 1.38 µM

Cc1c2c(c(C)n1-c1ccccc1)C(=O)N(CCCCN1CCN(c3ccccc3)CC1)C2=O
inactive: 786-0 4.97 µM | A549 14.5 µM | ACHN 23.1 µM | BT-549 16.9 µM | COLO 205 6.62 µM | HCC 2998 4.99 µM | HOP-62 7.73 µM | K562 4.22 µM | KM12 19.5 µM | MDA-MB-231 10 µM | MOLT-4 5.71 µM | Malme-3M 4.03 µM | NCI-H23 6.73 µM | NCI-H460 11.7 µM | OVCAR-3 8.95 µM | OVCAR-4 13 µM | RXF 393 14.5 µM | SK-OV-3 27.4 µM | SNB-19 29 µM | SR 8.85 µM

N#Cc1nc(CSCc2ccccc2)oc1N
inactive: 786-0 > 100 µM | A549 > 100 µM | ACHN > 100 µM | BT-549 > 100 µM | COLO 205 > 100 µM | HCC 2998 > 100 µM | HOP-62 > 100 µM | KM12 > 100 µM | MDA-MB-231 > 100 µM | MOLT-4 > 100 µM | Malme-3M 1.35 µM | NCI-H23 > 100 µM | NCI-H460 > 100 µM | OVCAR-3 > 100 µM | OVCAR-4 > 100 µM | RXF 393 > 100 µM | SK-OV-3 > 100 µM | SR > 100 µM

CC1OC(OC2C(O)COC(OC3C(C)OC(OC4C(OC(=O)[C@]56CCC(C)(C)C[C@@H]5C5=CCC7[C@@]8(C)C[C@H](O)[C@H](OC9OC(CO)C(O)C(O)C9O)[C@@](C)(CO)[C@@H]8CC[C@@]7(C)[C@]5(C)CC6)OCC(O)C4O)C(O)C3O)C2O)C(O)C(O)C1O (stereo not given in full)
inactive: 786-0 18.1 µM | A549 20.8 µM | ACHN 21.2 µM | BT-549 24.1 µM | COLO 205 14.9 µM | HCC 2998 18.5 µM | HOP-62 18.3 µM | K562 47.9 µM | KM12 35.5 µM | MDA-MB-231 19.8 µM | MOLT-4 19 µM | Malme-3M 33.4 µM | NCI-H23 28.2 µM | NCI-H460 20.5 µM | OVCAR-3 18.1 µM | OVCAR-4 20.8 µM | RXF 393 15.6 µM | SK-OV-3 19.8 µM | SNB-19 21.8 µM | SR 21 µM

O=C(OC1OC2COC(=O)c3cc(O)c(O)c(O)c3-c3c(cc(O)c(O)c3O)C(=O)OC3C2OC(=O)[C@@]24CC(=O)[C@@](O)(OC25C(=O)O[C@H]2[C@@H](O)CO[C@@]25O)C2(O)Oc5c(O)c(O)cc(c5C24)C(=O)OC13)c1cc(O)c(O)c(O)c1 (stereo not given in full)
active: MDA-MB-231 0.857 µM
inactive: 786-0 63.1 µM | A549 27.7 µM | ACHN 32.1 µM | BT-549 > 100 µM | COLO 205 56.4 µM | HCC 2998 28 µM | HOP-62 74.5 µM | K562 30.1 µM | KM12 18.8 µM | MOLT-4 40.5 µM | Malme-3M > 100 µM | NCI-H23 25.7 µM | NCI-H460 40.9 µM | OVCAR-3 50 µM | OVCAR-4 37.2 µM | RXF 393 > 100 µM | SK-OV-3 83 µM | SNB-19 > 100 µM | SR 30.3 µM

CC(=O)C1=C(C)N(c2ccccc2)C2(O)C=CC(O)=C3C(=O)c4ccccc4C(=O)C312 (stereo not given)
inactive: 786-0 20 µM | A549 15.3 µM | ACHN 11.4 µM | BT-549 13.2 µM | COLO 205 6.18 µM | HCC 2998 10.6 µM | HOP-62 32.9 µM | K562 8.13 µM | KM12 13.5 µM | MDA-MB-231 17.7 µM | MOLT-4 8.28 µM | NCI-H23 15.8 µM | NCI-H460 8.87 µM | OVCAR-3 3.52 µM | OVCAR-4 20.9 µM | RXF 393 11.6 µM | SK-OV-3 48.4 µM | SNB-19 17.1 µM | SR 8.55 µM
active: Malme-3M 0.748 µM

COc1cc(NS(C)(=O)=O)ccc1NCc1c[nH]c2ccc3ncccc3c12
inactive: 786-0 15.6 µM | A549 27.8 µM | ACHN 21 µM | BT-549 18.9 µM | COLO 205 15.6 µM | HCC 2998 18.9 µM | HOP-62 22.2 µM | K562 9.12 µM | KM12 17.1 µM | MDA-MB-231 19.7 µM | MOLT-4 5.83 µM | Malme-3M 20.5 µM | NCI-H23 20.4 µM | NCI-H460 18.2 µM | OVCAR-3 23.2 µM | OVCAR-4 20.7 µM | RXF 393 5.55 µM | SK-OV-3 16.5 µM | SNB-19 30.1 µM | SR 2.75 µM

CCOC(=O)C12CCC(c3c(C)cccc3C)(O1)C(C(=O)OC)=C2C(=O)OC (stereo not given)
active: Malme-3M 1.05 µM | OVCAR-3 0.889 µM | SR 0.646 µM
inactive: 786-0 3.08 µM | A549 3.62 µM | ACHN > 8.49 µM | BT-549 4 µM | COLO 205 1.87 µM | HCC 2998 6.7 µM | HOP-62 4.11 µM | K562 3.62 µM | KM12 4.28 µM | MDA-MB-231 5.07 µM | MOLT-4 4.74 µM | NCI-H23 3.4 µM | NCI-H460 2.23 µM | OVCAR-4 > 9.02 µM | RXF 393 4.71 µM | SK-OV-3 5.09 µM | SNB-19 > 9.64 µM

Cc1csc2c1-n1cccc1C2=O
inactive: 786-0 > 100 µM | A549 > 100 µM | ACHN > 100 µM | BT-549 > 100 µM | COLO 205 > 100 µM | HCC 2998 > 100 µM | HOP-62 53 µM | K562 > 100 µM | KM12 > 100 µM | MDA-MB-231 > 100 µM | MOLT-4 > 100 µM | Malme-3M > 100 µM | NCI-H460 > 100 µM | OVCAR-3 > 100 µM | OVCAR-4 > 100 µM | RXF 393 98.4 µM | SK-OV-3 > 100 µM | SNB-19 > 100 µM | SR > 100 µM

COc1cc(/C=C\c2ccc(C)cc2)cc(OC)c1OC
active: 786-0 0.00456 µM | A549 0.0048 µM | ACHN 0.0637 µM | BT-549 0.0246 µM | COLO 205 0.0101 µM | HCC 2998 0.0191 µM | HOP-62 0.0355 µM | K562 0.00131 µM | KM12 0.00531 µM | MDA-MB-231 0.0259 µM | MOLT-4 0.00697 µM | Malme-3M 0.00359 µM | NCI-H23 0.0363 µM | NCI-H460 0.0232 µM | OVCAR-3 0.00115 µM | OVCAR-4 < 0.01 µM | RXF 393 < 0.01 µM | SK-OV-3 0.0017 µM | SNB-19 0.004 µM | SR 0.00841 µM
